{"source": "patent US7321027B2", "about": "“Small technetium-99m and rhenium labeled agents and methods for imaging tumors” (President and Fellows of Harvard College, priority 2000, dated 2008)", "tested_on": "MCF-7 human breast cancer cell line", "test": "In-vitro tumor-cell uptake, breast cancer cells", "format": "cell-based", "conditions": "37° C., MCF-7 cell line", "protocol": "In-Vitro Tumor-Uptake Studies. Tumor-cell uptake studies in B16/F0 murine melanoma cells were performed with complexes Tc-(Compound A-D and H-M) at 37° C. and 4° C. Additionally, tumor-cell uptake of complex Tc-(Compound A) was investigated in another rapidly dividing MCF-7 human breast cancer cell line.\nIn-Vitro Cell Studies. […] After being washed with 12 mL Dulbecco's Phosphate-Buffered Saline (PBS) (Gibco), pH 7.2 (Ca^2+- and Mg^2+-free; g/L KCl, 0.20; KH2PO4, 0.20; NaCl, 8.00; Na2HPO4, 1.15), the cells were counted and resuspended in 8 mL S-MEM (Gibco) (Ca^2+ free, with reduced Mg^2+ content) and stored at 4° C. until use.\nFor in-vitro tumor-cell accumulation studies, 5×10^6 cells in polypropylene test tubes were incubated at 37° C. or 4° C., with intermittent agitation with 1-2 μCi (5 μL) ^99mTc-complex Tc-(Compound A-D) in a total volume of 350 μL S-MEM. […] Both fractions were counted for radioactivity in a γ-counter (WALLAC, 1480 WIZARD 3″™). The amount of supernatant in the cell pellet was determined to be <1% in separate experiments. The percentage cell uptake of the ^99mTc-complex was calculated as: % uptake=[cpm(pellet)]/[cpm(pellet)+cpm(supernatant)]×100"}
{"smiles": "CCN(CC)CCN1CC[S][99Tc]2(=[O])[S]CC[N]2C(=O)C1", "note": "(stereo not shown) [Tc-(Compound A)]", "values": [{"measurement": "maximum cell uptake", "result": 6, "unit": "%"}]}
